Experimental data taken from PubChem BioAssay AID1919001 (Molecular Pharmacology Branch, DTP, NCI, 2023).

Tested on: 699152-130-R-J1-PDC complex spheroid growth
Assay: Anticancer human tumor 699152-130-R-J1-PDC patient-derived pancreatic carcinoma cell line growth inhibition [AhR]
Settings: for IC50: curve of first compound; for viability, T/C: stronger effect = lower value; active = viability on the fitted dose curve at most 10% of control; inactive = the rest
Outline: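 Spheroids combined tumor cells with HUVEC endothelial cells and human MSCs as stroma. AhR antagonists were paired with standard or investigational drugs, each dosed in half-log steps down from near clinical Cmax, or from 10 microM where Cmax was unknown.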

[1] = second compound 0.1 µM, first compound 0.0316 µM
[2] = second compound 0.1 µM, first compound 0.1 µM
[3] = second compound 0.316 µM, first compound 0.0316 µM
[4] = second compound 0.316 µM, first compound 0.1 µM
[5] = second compound 1 µM, first compound 0.0316 µM
[6] = second compound 1 µM, first compound 0.1 µM
[7] = second compound 3.16 µM, first compound 0.0316 µM
[8] = second compound 3.16 µM, first compound 0.1 µM
[9] = second compound 10 µM, first compound 0.0316 µM
[10] = second compound 10 µM, first compound 0.1 µM
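Also: compound exposure lasted 7 days after spheroids had grown for 3 days.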

Cn1ncnc1C1c2n[nH]c(=O)c3cc(F)cc(c23)NC1c1ccc(F)cc1 (stereo not given) + Cc1ccccc1N=Nc1ccc(NC(=O)c2ccnn2C)c(C)c1
> 100 nM: IC50 (second compound 0.1 µM) | IC50 (second compound 0.316 µM) | IC50 (second compound 1 µM) | IC50 (second compound 3.16 µM) | IC50 (second compound 10 µM)
inactive: viability, T/C (second compound 0.1 µM, first compound 0.000316 µM) 83.7% | viability, T/C (second compound 0.1 µM, first compound 0.001 µM) 101% | viability, T/C (second compound 0.1 µM, first compound 0.00316 µM) 101% | viability, T/C (second compound 0.1 µM, first compound 0.01 µM) 87% | viability, T/C [1] 99.2% | viability, T/C [2] 100% | viability, T/C (second compound 0.316 µM, first compound 0.000316 µM) 102% | viability, T/C (second compound 0.316 µM, first compound 0.001 µM) 96.5% | viability, T/C (second compound 0.316 µM, first compound 0.00316 µM) 97.8% | viability, T/C (second compound 0.316 µM, first compound 0.01 µM) 88.8% | viability, T/C [3] 92.4% | viability, T/C [4] 80.1% | viability, T/C (second compound 1 µM, first compound 0.000316 µM) 107% | viability, T/C (second compound 1 µM, first compound 0.001 µM) 87% | viability, T/C (second compound 1 µM, first compound 0.00316 µM) 94% | viability, T/C (second compound 1 µM, first compound 0.01 µM) 98.4% | viability, T/C [5] 95.5% | viability, T/C [6] 83.2% | viability, T/C (second compound 3.16 µM, first compound 0.000316 µM) 97.5% | viability, T/C (second compound 3.16 µM, first compound 0.001 µM) 117% | viability, T/C (second compound 3.16 µM, first compound 0.00316 µM) 112% | viability, T/C (second compound 3.16 µM, first compound 0.01 µM) 100% | viability, T/C [7] 90.5% | viability, T/C [8] 99% | viability, T/C (second compound 10 µM, first compound 0.000316 µM) 113% | viability, T/C (second compound 10 µM, first compound 0.001 µM) 112% | viability, T/C (second compound 10 µM, first compound 0.00316 µM) 118% | viability, T/C (second compound 10 µM, first compound 0.01 µM) 122% | viability, T/C [9] 108% | viability, T/C [10] 105%

NS(=O)(=O)OCC1CC(n2ccc3c(NC4CCc5ccccc54)ncnc32)CC1O (stereo not given) + Cc1ccccc1N=Nc1ccc(NC(=O)c2ccnn2C)c(C)c1
724 nM: IC50 (second compound 0.316 µM)
542 nM: IC50 (second compound 10 µM)
739 nM: IC50 (second compound 1 µM)
694 nM: IC50 (second compound 3.16 µM)
inactive: viability, T/C [1] 98.3% | viability, T/C [2] 107% | viability, T/C (second compound 0.1 µM, first compound 0.316 µM) 107% | viability, T/C (second compound 0.1 µM, first compound 1 µM) 37.5% | viability, T/C (second compound 0.1 µM, first compound 3.16 µM) 21.6% | viability, T/C (second compound 0.1 µM, first compound 10 µM) 25.2% | viability, T/C [3] 102% | viability, T/C [4] 103% | viability, T/C (second compound 0.316 µM, first compound 0.316 µM) 104% | viability, T/C (second compound 0.316 µM, first compound 1 µM) 29.4% | viability, T/C (second compound 0.316 µM, first compound 3.16 µM) 18.5% | viability, T/C (second compound 0.316 µM, first compound 10 µM) 20.1% | viability, T/C [5] 105% | viability, T/C [6] 116% | viability, T/C (second compound 1 µM, first compound 0.316 µM) 105% | viability, T/C (second compound 1 µM, first compound 1 µM) 30.3% | viability, T/C (second compound 1 µM, first compound 3.16 µM) 20.2% | viability, T/C (second compound 1 µM, first compound 10 µM) 27.1% | viability, T/C [7] 115% | viability, T/C [8] 115% | viability, T/C (second compound 3.16 µM, first compound 0.316 µM) 96.7% | viability, T/C (second compound 3.16 µM, first compound 1 µM) 28.4% | viability, T/C (second compound 3.16 µM, first compound 3.16 µM) 20.8% | viability, T/C (second compound 3.16 µM, first compound 10 µM) 24.9% | viability, T/C [9] 122% | viability, T/C [10] 125% | viability, T/C (second compound 10 µM, first compound 0.316 µM) 67.3% | viability, T/C (second compound 10 µM, first compound 1 µM) 32.9% | viability, T/C (second compound 10 µM, first compound 3.16 µM) 27.2% | viability, T/C (second compound 10 µM, first compound 10 µM) 30.8%
807 nM: IC50 (second compound 0.1 µM)

Nc1ncn(C2CC(O)C(CO)S2)c(=O)n1 (stereo not given) + Cc1ccccc1N=Nc1ccc(NC(=O)c2ccnn2C)c(C)c1
> 300 nM: IC50 (second compound 0.1 µM) | IC50 (second compound 0.316 µM) | IC50 (second compound 1 µM) | IC50 (second compound 3.16 µM) | IC50 (second compound 10 µM)
inactive: viability, T/C (second compound 0.1 µM, first compound 0.000949 µM) 99.6% | viability, T/C (second compound 0.1 µM, first compound 0.003 µM) 98.9% | viability, T/C (second compound 0.1 µM, first compound 0.00949 µM) 99% | viability, T/C (second compound 0.1 µM, first compound 0.03 µM) 95.5% | viability, T/C (second compound 0.1 µM, first compound 0.0949 µM) 102% | viability, T/C (second compound 0.1 µM, first compound 0.3 µM) 102% | viability, T/C (second compound 0.316 µM, first compound 0.000949 µM) 101% | viability, T/C (second compound 0.316 µM, first compound 0.003 µM) 105% | viability, T/C (second compound 0.316 µM, first compound 0.00949 µM) 95.3% | viability, T/C (second compound 0.316 µM, first compound 0.03 µM) 105% | viability, T/C (second compound 0.316 µM, first compound 0.0949 µM) 103% | viability, T/C (second compound 0.316 µM, first compound 0.3 µM) 90.4% | viability, T/C (second compound 1 µM, first compound 0.000949 µM) 101% | viability, T/C (second compound 1 µM, first compound 0.003 µM) 101% | viability, T/C (second compound 1 µM, first compound 0.00949 µM) 103% | viability, T/C (second compound 1 µM, first compound 0.03 µM) 107% | viability, T/C (second compound 1 µM, first compound 0.0949 µM) 103% | viability, T/C (second compound 1 µM, first compound 0.3 µM) 89.8% | viability, T/C (second compound 3.16 µM, first compound 0.000949 µM) 90.2% | viability, T/C (second compound 3.16 µM, first compound 0.003 µM) 99% | viability, T/C (second compound 3.16 µM, first compound 0.00949 µM) 104% | viability, T/C (second compound 3.16 µM, first compound 0.03 µM) 101% | viability, T/C (second compound 3.16 µM, first compound 0.0949 µM) 100% | viability, T/C (second compound 3.16 µM, first compound 0.3 µM) 95.3% | viability, T/C (second compound 10 µM, first compound 0.000949 µM) 114% | viability, T/C (second compound 10 µM, first compound 0.003 µM) 116% | viability, T/C (second compound 10 µM, first compound 0.00949 µM) 122% | viability, T/C (second compound 10 µM, first compound 0.03 µM) 111% | viability, T/C (second compound 10 µM, first compound 0.0949 µM) 114% | viability, T/C (second compound 10 µM, first compound 0.3 µM) 107%
